Results taken from paper PMC10463376, “Design, synthesis, in vitro anticancer, molecular docking and SAR studies of new series of pyrrolo[2,3-d]pyrimidine derivatives” (BMC Chemistry, 2023).
In brackets after ≈: the same amount, converted by molar mass.

How the values were obtained:
MCF7 breast cancer cells = test: MTT assay, MCF7; settings: for cytotoxicity at 100 µg/mL / IC50: Homo sapiens, MCF7, 72 h; for IC50: read-out: IC50 MCF7
Description: (§1) All of the following steps were done in a sterile Laminar flow class II biosafety cabinet (Baker, SG406INT, Sanford, ME, USA). DMEM was used as a suspension medium for breast cancer (MCF7), colorectal cancer (HCT116), prostate cancer (PC3), liver cancer (HePG2), pancreatic cancer (PACA2) and lung cancer (A549), while normal cell line (BJ1) was suspended in DMEM-F12 medium. The selected cell lines were purchased from American Type Culture Collection (ATCC). The media were supplemented with a 1% antimycotic-antibiotic mixture (10,000 µg/ml streptomycin sulfate, 25 µg/ml Amphotericin B, and 10,000 U/ml Potassium Penicillin) and 1% L-glutamine. 10 × 10^4cells/well were seeded in 96 well microtiter plates and incubated for 24 h at 37 ℃ under 5% carbon dioxide using a water-jacketed Carbon dioxide incubator (Sheldon, SCO5A, OR, USA). […] After the incubation time of 72 h, the medium was removed. Afterward, 40 µl MTT salt ([…]) was added to each well and kept for 4 h under the same conditions of 37 °C and 5% carbon dioxide. Finally, 200 μl of 10% Sodium dodecyl sulfate (SDS) in deionized water was added to each well and incubated overnight at 37 °C. The step of SDS addition was done to stop the reaction and dissolve the formed formazan crystals. The absorbance was then measured at a wavelength of 595 nm and the reference wavelength was set at 620 nm using a microplate multi-well reader (Bio-Rad Laboratories Inc., model 3356, California, USA). […] A statistical significance analysis was determined between the samples and the negative control using an independent t-test by SPSS 11 program. Dimethyl sulfoxide (DMSO) was the vehicle that dissolved our synthesized compounds and its concentration in the cells was less than 0.2%. IC50 values were calculated using the GraphPad Prism 6 program. The degree of selectivity of the synthetic compounds was expressed as SI = IC50 of a pure compound in a normal cell line/IC50 of the same pure compound in the cancer cell line, where IC50 is the concentration of the compound required to kill 50% of the cells.

A549 lung cancer cells = test: MTT assay, A549; settings: for cytotoxicity at 100 µg/mL / IC50: Homo sapiens, A549, 72 h; for cytotoxicity at 100 µg/mL: read-out: MTT cell proliferation mortality assay (%) A549, at 100 μg/ml, 72 h; for IC50: read-out: IC50 A549; for cytotoxicity: read-out: MTT cell proliferation mortality assay (%) A549, at 100 μg/ml, 72 h
Description: as §1

[1] = test system: HCT116 colorectal cancer cells; test: MTT assay, HCT116; settings: Homo sapiens, HCT-116, 72 h, read-out: MTT cell proliferation mortality assay (%) HCT116, at 100 μg/ml, 72 h
Description: as §1

[2] = test system: PC3 prostate cancer cells; test: MTT assay, PC3; settings: Homo sapiens, 72 h, read-out: MTT cell proliferation mortality assay (%) PC3, at 100 μg/ml, 72 h
Description: as §1

HePG2 liver cancer cells = test: MTT assay, HePG2; settings: Homo sapiens, HepG2, 72 h; for cytotoxicity at 100 µg/mL: read-out: MTT cell proliferation mortality assay (%) HePG2
Description: as §1

[3] = test system: PACA2 pancreatic cancer cells; test: MTT assay, PACA2; settings: Homo sapiens, PaCa-2, 72 h; for IC50: read-out: IC50 PACA2; for cytotoxicity at 100 µg/mL: read-out: MTT cell proliferation mortality assay (%) PACA2
Description: as §1

[4] = MTT assay, normal cell line BJ1; assay type: cell-based; settings: human, at 100 μg/ml, read-out: MTT cell proliferation mortality assay (%) BJ1
Description: as §1

[5] = read-out: MTT cell proliferation mortality assay (%) MCF7

Compound	cytotoxicity at 100 µg/mL (MCF7 breast cancer cells; [5]) [%]	cytotoxicity at 100 µg/mL (A549 lung cancer cells) [%]	cytotoxicity at 100 µg/mL [1] [%]	cytotoxicity at 100 µg/mL [2] [%]	cytotoxicity at 100 µg/mL (HePG2 liver cancer cells) [%]	IC50 [3] [µg/mL]	cytotoxicity at 100 µg/mL [3] [%]	cytotoxicity at 72 h, 100 μg/ml [4] [%]	IC50 (MCF7 breast cancer cells) [µg/mL]	IC50 (A549 lung cancer cells) [µg/mL]	cytotoxicity (A549 lung cancer cells) [%]	cytotoxicity (MCF7 breast cancer cells; read-out: MTT cell proliferation mortality assay (%) MCF7, at 100 μg/ml, 72 h) [%]	IC50 (HePG2 liver cancer cells; read-out: IC50 HePG2) [µg/mL]
Clc1ccc(-n2c(Cl)c(-c3ccc(Br)cc3)c3c(N4CCCC4)ncnc32)c(Cl)c1 [Compound 11a, 5-(4-bromophenyl)-6-chloro-7-(2,4-dichlorophenyl)-4-(pyrrolidin-1-yl)-7H-pyrrolo[2,3-d]pyrimidine]	65.2 ± 1	11.8 ± 0.6	44.2 ± 0.8	12.5 ± 1.4	7.2 ± 1.3	55.4 ± 1.4 (≈ 106 µM)	84.3 ± 1.7	47.3 ± 1.3					
Clc1ccc(-n2cc(-c3ccc(Br)cc3)c3c(Cl)ncnc32)c(Cl)c1 [Compound 5, 5-(4-bromophenyl)-4-chloro-7-(2,4-dichlorophenyl)-7H-pyrrolo[2,3-d]pyrimidine]	27.9 ± 1.2	25.1 ± 0.7	60.4 ± 0.9	42.3 ± 1.3	34.5 ± 2.9		29.3 ± 0.8	16.3 ± 2					
Clc1ccc(-n2c(Cl)c(-c3ccc(Br)cc3)c3c(Cl)ncnc32)c(Cl)c1 [Compound 4a, 5-(4-bromophenyl)-4,6-dichloro-7-(2,4-dichlorophenyl)-7H-pyrrolo[2,3-d]pyrimidine]	100	80 to 90	74.2 ± 2.5	53 ± 0.7	43.5 ± 2.2	24.1 ± 1 (≈ 49.4 µM)	100	74.6 ± 0.6	32.4 ± 0.8 (≈ 66.4 µM)	68.9 ± 0.5 (≈ 141 µM)	79.4 ± 1.6		
NNc1nc(C(Cl)(Cl)Cl)nc2c1c(-c1ccc(Br)cc1)c(Cl)n2-c1ccc(Cl)cc1Cl [Compound 15, 5-(4-bromophenyl)-6-chloro-7-(2,4-dichlorophenyl)-4-hydrazineyl-2-(trichloromethyl)-7H-pyrrolo[2,3-d]pyrimidine]	81.2 ± 0.8	80 to 90	100	65.9 ± 2.4	100		100	4.5 ± 0.3	42.8 ± 0.6 (≈ 71.2 µM)	54 ± 1.7 (≈ 89.9 µM)	84.6 ± 0.4	80 to 95	29.1 ± 0.5 (≈ 48.4 µM)
